From patent US20060211755A1, “3-oxo-1, 3-dihydro-indazole-2-carboxylic acid amide derivatives as phospholipase inhibitors” (Eli Lilly and Company Patent Division, priority 2003, published 2006)

Columns and labels:
[1] = target: T1, Recombinant Hepatic Lipase (Homo sapiens, UniProt P11150); assay: Hepatic Lipase Phospholipase Assay; type: biochemical; details: ThioPEG substrate, DTNB, 37° C., 10 min preincubation; read-out: Hepatic Lipase Inhibition IC50
T1 sequence (P11150 23-499): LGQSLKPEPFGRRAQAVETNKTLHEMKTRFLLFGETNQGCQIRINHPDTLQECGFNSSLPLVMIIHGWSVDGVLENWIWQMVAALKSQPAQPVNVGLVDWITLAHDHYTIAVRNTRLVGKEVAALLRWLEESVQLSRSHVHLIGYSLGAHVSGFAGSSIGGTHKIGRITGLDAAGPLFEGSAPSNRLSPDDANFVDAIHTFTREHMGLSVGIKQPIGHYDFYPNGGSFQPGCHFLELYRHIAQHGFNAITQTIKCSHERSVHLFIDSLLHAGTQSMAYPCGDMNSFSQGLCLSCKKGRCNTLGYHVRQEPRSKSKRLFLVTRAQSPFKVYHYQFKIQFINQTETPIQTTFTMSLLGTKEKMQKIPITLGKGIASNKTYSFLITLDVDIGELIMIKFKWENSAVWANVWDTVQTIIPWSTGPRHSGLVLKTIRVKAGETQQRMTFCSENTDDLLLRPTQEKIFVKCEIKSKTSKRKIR
Procedure: Hepatic Lipase Phospholipase Assay
Efficacy was determined by testing various compounds of the invention in a hepatic lipase assay discussed below, and disclosed in U.S. patent application Ser. No. 09/609,871 filed Jul. 3, 2000 incorporated herein by reference in its entirety for U.S. Patent office purposes.
• Substrate Buffer A: 100 mM Hepes, pH 8.3 at 37° C. • Substrate Buffer B: 100 mM Hepes, pH 8.3 at 37° C. with 6.83 mM Triton X100 • ThioPEG: Molecular wt. of 540 • Recombinant Hepatic Lipase • Thiophospholipid: about 0.42 mM thiophospholipid in chloroform • DTNB Solution: about […] DTNB in DMSO (dimethyl sulfoxide) Hepes Buffer A
For Hepes Buffer A, there is 2.4 g Hepes/100 mL water. Therefore 36 grams of Hepes is dissolved in 1500 mL of water. The mix solution's pH is adjusted to pH 8.3 at 37° C. and brought up to 1500 mL with water. 500 mL of Buffer A is retained for the Protein Buffer.
To the remaining 1000 mL of Hepes Buffer A, 4.49 g of Triton X-100 is added and then the combination mixed on a stir plate. It is optimal that stock Buffer A not be too cold or Triton X-100 will take a long time to go into solution
For 0.42 mM substrate stock, use 0.227 mg of thioPEG/mL of Substrate Buffer B. Approximately 20 mg of sn-1 thiol substituted. Phosphatidyl Ethylene Glycol (see Examples for preparation method) is weighed into a vial, such as a scintillation vial. Enough chloroform should be added to make a 2.043 mg/mL solution. Sonicate the solution briefly until well dissolved. Next, pipette 1 mL of chloroform/substrate solution into each scintillation vial. This should give enough substrate for one full 96 well plate. Each vial is dried with nitrogen until solvent removed, swirling each vial simultaneously such that a thin film of substrate will be easily reconstituted in each buffer. Each vial is then frozen.
Daily stock preparation is performed for 9 mL of substrate (one microtiter plate). On the day of the assay, the substrate vial is removed from the freezer and combined with 9 mL of pre-warmed (37° C.) substrate buffer (the final concentration is 0.227 mg/mL). Place the buffer in a 37° C. water bath. Sonicate for 5 minutes or vortex until solution is clear before use.
The enzyme is stored at −80° C. in 100 or 50 μL portions. A 0.406 mg/mL recombinant hepatic lipase stock requires a 50-fold dilution. Therefore, to a 50 μL or 100 μL enzyme aliquot, 2450 μL or 4900 μL, respectively, of substrate Buffer A (protein buffer) should be added. The enzyme should then be stored on ice until ready to use. The protein concentration of enzyme is about 0.406 mg/mL.
To make a 20 mg/mL stock solution, 2-3 mg of DTNB is weighed and then mixed with an appropriate amount of 100% DMSO (dimethyl sulfoxide) to make the desired concentration. This mixture is sonicated for five minutes.
The above solution should be diluted 10 fold with substrate Buffer B (concentration now 2 mg/mL). Then to the thioPEG substrate solution, add 60 μl of dilute DTNB per mL of thioPEG substrate solution. Thus for 9 mL of substrate, 540 microliters of dilute DTNB (final concentration in substrate solution=0.11 mg/mL).
The test compound is dissolved in pure DMSO at […]. As shown below in Table 2, assay concentrations are 10, 1, 0.1, 0.33, 0.011, 0.0037, 0.0012 and 0.00041 μM.
Using a spectrometer, DTNB is used as a thiol coloring reagent with an incubator temperature of 37° C. Substrate Buffer B is placed in a 37° C. water bath to pre-warm. […]

endothelial lipase (EL) = target: T2, endothelial lipase (EL) (Homo sapiens, UniProt Q9Y5X9); assay: Endothelial Lipase Inhibition (Thio PEG substrate, conditioned media); type: biochemical; details: EL expressed from AV12 cells, 37° C., average of 3 experiments
T2 construct: made in house; host or cells: AV12 cells (conditioned media, non-purified)
T2 sequence (Q9Y5X9 21-500): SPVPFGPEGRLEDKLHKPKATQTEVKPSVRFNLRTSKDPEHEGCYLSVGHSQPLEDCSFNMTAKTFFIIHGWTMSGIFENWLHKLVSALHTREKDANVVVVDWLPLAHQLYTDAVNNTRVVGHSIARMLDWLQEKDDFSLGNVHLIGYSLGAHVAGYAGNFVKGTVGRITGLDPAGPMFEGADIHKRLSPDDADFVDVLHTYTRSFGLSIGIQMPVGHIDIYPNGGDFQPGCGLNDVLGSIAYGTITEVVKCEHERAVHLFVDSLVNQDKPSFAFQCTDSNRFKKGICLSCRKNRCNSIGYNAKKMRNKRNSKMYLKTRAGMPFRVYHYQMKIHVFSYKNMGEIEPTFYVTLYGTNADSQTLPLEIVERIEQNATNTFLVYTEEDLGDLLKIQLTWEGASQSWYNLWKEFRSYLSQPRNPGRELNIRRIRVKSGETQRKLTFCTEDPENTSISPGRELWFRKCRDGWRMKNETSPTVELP
Procedure: Methods for Characterization of Endothelial Lipase Activity
Hepatic lipase (HL) and endothelial lipase (EL) were expressed from AV12 cells. Aliquots from one day's collection of media were stored at −70° C. Activity was measured for both enzymes in conditioned media, (non-purified) where they were tested on the same plate with Thio PEG substrate (0.06 mol fraction, 7.24 mM total lipid), at 37° C. for 30 minutes. […] The OD for EL at 1× was 6.029. Therefore, when HL was used in studies where it was compared to EL, the HL was at 0.25× and EL was used at 1×. All experiments were done in triplicate with enzyme from conditioned media.
Assay conditions of assay were as follows. Both substrates for EL were run at 0.03 mol fraction, 10 mM total lipid. They were dissolved in 100 mM Hepes with 9.95 mM TX100. Both substrates for HL were run at 0.06 mol fraction and 7.25 mM total lipid. They were dissolved in 100 mM Hepes with 6.83 mM Triton X100. The EL enzyme was used at 1× and the HL enzyme was used at 0.25×. The order of addition was as follows: 10 μL of 10% DMSO, 80 μL of substrate and 10 μL of enzyme. The DMSO and substrate were incubated for 10 minutes at 37° C. before the addition of the enzyme. DTNB was added to the substrate prior to addition to the well at 0.096 mg/mL final plate. concentration. The experiments were performed 3 times. Data represents an average of these.
Several compounds were tested with HL and EL to determine their ability to inhibit these enzymes. Conditions of the assay were as mentioned in the previous paragraph except for the order of addition. In these experiments, the order of addition was 10 μL of drug/control, 10 μL of enzyme followed by a 10 minute incubation at 37° C. This was followed by the addition of the 80 μL of Thio PEG substrate containing DTNB. Each experiment was performed 3 times. Data represents an average.

IC50 [1] | IC50 (endothelial lipase (EL)) | melting point | Structure (SMILES)
 | 11.4 ± 5.17 nM |  | CCc1ccccc1CNC(=O)n1[nH]c2ccccc2c1=O
19 ± 0.4 nM |  |  | CCCCNC(=O)n1c(=O)c2ccccc2n1C
67.2 ± 3.2 nM |  |  | CCCCCNC(=O)n1[nH]c2ccccc2c1=O [drawing 15]
368 ± 15 nM |  |  | CCCCNC(=O)n1[nH]c2ccccc2c1=O
 | 13.2 ± 2.83 nM |  | O=C(NCc1csc2ccccc12)n1[nH]c2ccccc2c1=O
 | 45.1 ± 27.5 nM |  | O=C(NCc1ccc2c(c1)OCO2)n1[nH]c2ccccc2c1=O
 |  | > 250 °C | Cc1ccc(F)cc1CNC(=O)n1[nH]c2c(C(=O)O)cccc2c1=O [Example 58, 2-(5-Fluoro-2-methyl-benzylcarbamoyl)-3-oxo-2,3-dihydro-1H-indazole-7-carboxylic acid]
 |  | 179 to 180 °C | Cc1cccc(CNC(=O)n2[nH]c3ccccc3c2=O)c1 [Example 17, 3-Oxo-1,3-dihydro-indazole-2-carboxylic acid 3-methyl-benzylamide]
 | 73.8 ± 26.2 nM |  | O=C(NCc1ccccc1)n1[nH]c2ccccc2c1=O
 |  | > 250 °C | CCCCCCNC(=O)n1[nH]c2cccc(C(=O)O)c2c1=O [Example 78, 2-Hexylcarbamoyl-3-oxo-2,3-dihydro-1H-indazole-4-carboxylic acid]
 |  | > 250 °C | CCc1cccc(CC)c1CNC(=O)n1[nH]c2c(C(=O)O)cccc2c1=O [Example 70, 2-(2,6-Diethyl-benzylcarbamoyl)-3-oxo-2,3-dihydro-1H-indazole-7-carboxylic acid]

Structure (SMILES) | IC50 [1] | IC50 (endothelial lipase (EL)) | melting point
CCCCCNC(=O)n1c(=O)c2ccccc2n1CCC | 59.2 ± 1.1 nM |  | 
CCCCCNC(=O)n1c(=O)c2ccccc2n1CCc1ccccc1 | 97.1 ± 1 nM |  | 
